Laboratory results: publication PMC7997411, “Discovery and Optimization of Selective Inhibitors of Meprin α (Part II)” (Pharmaceuticals, 2021)

Key:
[1] = target: T1, meprin α (Homo sapiens, UniProt Q16819); assay: Kinetic parameters of meprin α mediated proteolysis in the presence of SR24717; assay type: biochemical
T1 construct: Strep-tag; made in house; host or cells: BTI-TN-5B1-4 insect cells (baculovirus, amplified in Sf9)
T1 sequence (Q16819 66-746): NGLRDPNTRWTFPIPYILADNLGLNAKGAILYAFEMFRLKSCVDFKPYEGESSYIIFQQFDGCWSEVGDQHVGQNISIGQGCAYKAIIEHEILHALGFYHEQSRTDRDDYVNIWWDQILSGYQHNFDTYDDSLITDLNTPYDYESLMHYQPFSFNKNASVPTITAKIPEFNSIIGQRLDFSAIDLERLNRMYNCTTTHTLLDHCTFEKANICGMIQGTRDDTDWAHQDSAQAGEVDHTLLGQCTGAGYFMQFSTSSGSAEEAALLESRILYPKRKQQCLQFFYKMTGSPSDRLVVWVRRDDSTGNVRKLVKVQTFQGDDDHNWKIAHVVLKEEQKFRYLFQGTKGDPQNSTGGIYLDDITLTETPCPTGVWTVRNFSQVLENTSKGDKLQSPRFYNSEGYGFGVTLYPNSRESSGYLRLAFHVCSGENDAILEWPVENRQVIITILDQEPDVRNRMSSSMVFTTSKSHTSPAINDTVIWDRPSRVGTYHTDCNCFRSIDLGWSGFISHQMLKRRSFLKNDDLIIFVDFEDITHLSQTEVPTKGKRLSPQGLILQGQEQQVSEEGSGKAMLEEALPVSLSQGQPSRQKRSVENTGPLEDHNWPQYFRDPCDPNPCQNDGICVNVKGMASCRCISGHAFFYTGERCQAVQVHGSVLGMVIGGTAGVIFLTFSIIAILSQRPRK
Procedure: Substrate stock solutions were prepared at various concentrations in HTS assay buffer (50 mM HEPES, 0.01% Brij-35, pH 7.5). Assays were conducted by incubating a range of substrate (2–50 µM) and SR24717 concentrations (0–1000 nM) with 1.3 nM meprin α at 25 °C. Fluorescence was measured on a multimode microplate reader Synergy H1 (Biotek Instruments, Winooski, VT, USA) using λexcitation = 324 nm and λemission = 393 nm. Rates of hydrolysis were obtained from plots of fluorescence versus time, using data points from only the linear portion of the hydrolysis curve. The slope from these plots was divided by the fluorescence change corresponding to complete hydrolysis and then multiplied by the substrate concentration to obtain rates of hydrolysis in units of μM/s. Kinetic parameters were calculated by non-linear regression analysis using the GraphPad Prism 8.0 suite of programs.

[2] = tested on: MMP-2, MMP-3, MMP-8, MMP-9, MMP-10, MMP-14, ADAM10, and ADAM17; assay: Selectivity panel of related metzincins; assay type: biochemical; settings: all tested enzymes, Figure 4B
Procedure: Both assays followed the same general protocol. 2.5 µL of 2× enzyme solution (20 nM) in assay buffer (10 mM HEPES, 0.001% Brij-35, pH 7.5) were added to solid bottom black 384 plates (Greiner, cat# 789075). Next, test compounds and pharmacological controls were added to corresponding wells using a 384-pin tool device (V&P Scientific, San Diego). After 30 min incubation at RT, the reactions were started by addition of 2.5 µL of 2× solutions of substrate (R&D Systems cat#: ES010, Mca-KPLGL-Dpa-AR-NH2, 20 µM). Reactions were incubated at RT for 2 h, after which the fluorescence was measured using a Perkin Elmer Viewlux multimode microplate imager (λexcitation = 324 nm, λemission = 393 nm). All compounds were tested in 10-point, 1:3 serial dilutions dose-response format starting with highest concentration of 100 µM. IC50 values were determined using non-linear regression analysis using the GraphPad Prism 8.0 suite of programs.
All assays followed the same general protocol. […] Reactions were incubated at RT for 1 h, after which the fluorescence was measured using the Synergy H4 multimode microplate reader (Biotek Instruments) (λexcitation = 324 nm, λemission = 390 nm). […] IC50 values were determined using non-linear regression analysis using the GraphPad Prism 8.0 suite of programs.

Ki ([1]; global fit to the competitive model of inhibition): 301 nM | mode of inhibition of meprin α ([1]; varying substrate concentration): competitive | IC50 [2]: > 100 µM
SMILES: COc1cc(OC)nc(SCc2nnc(SCC(=O)NO)n2-c2ccc(N(C)C)cc2)n1 [SR24717]
